Measurements from ChEMBL document CHEMBL5291721, “A preclinical secondary pharmacology resource illuminates target-adverse drug reaction associations of marketed drugs” (Nat Commun, 2023).

Experiments:
Vasopressin V1a receptor = Vasopressin V1a receptor (Homo sapiens, UniProt P37288)
[1] = target: Sodium-dependent noradrenaline transporter (Homo sapiens, UniProt P23975)
[2] = target: T1, Alpha-2A adrenergic receptor (Homo sapiens, UniProt P08913); assay type: functional, cell-based
T1 sequence (P08913 whole entry): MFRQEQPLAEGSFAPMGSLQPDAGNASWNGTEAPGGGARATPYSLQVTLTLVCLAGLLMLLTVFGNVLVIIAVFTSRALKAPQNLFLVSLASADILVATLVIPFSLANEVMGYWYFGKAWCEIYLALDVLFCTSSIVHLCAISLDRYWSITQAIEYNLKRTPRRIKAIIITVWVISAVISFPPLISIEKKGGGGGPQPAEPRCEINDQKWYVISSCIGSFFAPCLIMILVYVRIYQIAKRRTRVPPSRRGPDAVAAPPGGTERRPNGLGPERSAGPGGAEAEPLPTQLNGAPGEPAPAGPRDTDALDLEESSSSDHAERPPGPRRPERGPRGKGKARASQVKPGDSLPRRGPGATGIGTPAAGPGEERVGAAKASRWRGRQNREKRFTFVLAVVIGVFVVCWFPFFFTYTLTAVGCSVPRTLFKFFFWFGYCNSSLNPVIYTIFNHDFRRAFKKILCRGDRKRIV

Melanocortin receptor 4 = Melanocortin receptor 4 (Homo sapiens, UniProt P32245)
Adenosine receptor A1 = target: T2, Adenosine receptor A1 (Homo sapiens, UniProt P30542)
T2 sequence (P30542 whole entry): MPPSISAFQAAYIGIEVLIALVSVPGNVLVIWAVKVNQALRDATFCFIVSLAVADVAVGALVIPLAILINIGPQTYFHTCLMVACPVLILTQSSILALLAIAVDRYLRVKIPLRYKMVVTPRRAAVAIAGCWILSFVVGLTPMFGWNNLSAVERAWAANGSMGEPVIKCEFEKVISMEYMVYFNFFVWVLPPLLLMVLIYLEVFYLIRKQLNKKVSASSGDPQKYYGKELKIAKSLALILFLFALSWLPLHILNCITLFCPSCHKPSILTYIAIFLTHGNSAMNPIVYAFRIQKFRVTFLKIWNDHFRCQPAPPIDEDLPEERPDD

Mu-type opioid receptor = Mu-type opioid receptor (Homo sapiens, UniProt P35372)
Motilin receptor = Motilin receptor (Homo sapiens, UniProt O43193)
[3] = target: Beta-2 adrenergic receptor (Homo sapiens, UniProt P07550)
Estrogen receptor = target: T3, Estrogen receptor (Homo sapiens, UniProt P03372)
T3 sequence (P03372 whole entry): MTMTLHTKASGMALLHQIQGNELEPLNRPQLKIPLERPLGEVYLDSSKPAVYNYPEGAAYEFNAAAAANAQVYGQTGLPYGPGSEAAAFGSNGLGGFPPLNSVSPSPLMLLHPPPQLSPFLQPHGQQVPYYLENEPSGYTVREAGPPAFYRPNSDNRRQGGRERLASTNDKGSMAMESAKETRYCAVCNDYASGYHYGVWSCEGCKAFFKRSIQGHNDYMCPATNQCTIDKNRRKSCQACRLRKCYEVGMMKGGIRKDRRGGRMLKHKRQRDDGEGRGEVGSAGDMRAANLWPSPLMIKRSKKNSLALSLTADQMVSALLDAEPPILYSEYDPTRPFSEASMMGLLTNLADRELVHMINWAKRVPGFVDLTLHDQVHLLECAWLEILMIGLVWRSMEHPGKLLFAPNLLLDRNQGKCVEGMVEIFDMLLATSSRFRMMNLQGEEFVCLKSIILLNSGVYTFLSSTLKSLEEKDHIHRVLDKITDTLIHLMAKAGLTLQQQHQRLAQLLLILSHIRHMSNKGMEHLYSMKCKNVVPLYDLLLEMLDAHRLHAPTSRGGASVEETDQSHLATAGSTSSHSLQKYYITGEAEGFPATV

Cannabinoid receptor 1 = Cannabinoid receptor 1 (Homo sapiens, UniProt P21554)
[4] = target: T4, Alpha-1A adrenergic receptor (Homo sapiens, UniProt P35348)
T4 sequence (P35348 whole entry): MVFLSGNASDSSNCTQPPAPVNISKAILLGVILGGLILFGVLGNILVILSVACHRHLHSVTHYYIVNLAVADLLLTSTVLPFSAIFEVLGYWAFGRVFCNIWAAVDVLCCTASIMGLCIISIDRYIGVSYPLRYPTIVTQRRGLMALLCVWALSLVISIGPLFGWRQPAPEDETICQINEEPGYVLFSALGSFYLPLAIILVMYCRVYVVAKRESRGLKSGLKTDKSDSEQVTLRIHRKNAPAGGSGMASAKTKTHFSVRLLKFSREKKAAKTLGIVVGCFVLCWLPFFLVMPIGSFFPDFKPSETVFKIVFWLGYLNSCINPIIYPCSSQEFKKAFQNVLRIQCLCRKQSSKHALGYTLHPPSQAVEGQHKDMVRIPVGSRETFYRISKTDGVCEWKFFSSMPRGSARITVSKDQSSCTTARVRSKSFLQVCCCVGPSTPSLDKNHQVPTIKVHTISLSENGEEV

[5] = target: T4, Alpha-1A adrenergic receptor; assay type: functional, cell-based
Further: assay procedure not described here.

Chain of Beta-2 adrenergic receptor (P07550 whole entry): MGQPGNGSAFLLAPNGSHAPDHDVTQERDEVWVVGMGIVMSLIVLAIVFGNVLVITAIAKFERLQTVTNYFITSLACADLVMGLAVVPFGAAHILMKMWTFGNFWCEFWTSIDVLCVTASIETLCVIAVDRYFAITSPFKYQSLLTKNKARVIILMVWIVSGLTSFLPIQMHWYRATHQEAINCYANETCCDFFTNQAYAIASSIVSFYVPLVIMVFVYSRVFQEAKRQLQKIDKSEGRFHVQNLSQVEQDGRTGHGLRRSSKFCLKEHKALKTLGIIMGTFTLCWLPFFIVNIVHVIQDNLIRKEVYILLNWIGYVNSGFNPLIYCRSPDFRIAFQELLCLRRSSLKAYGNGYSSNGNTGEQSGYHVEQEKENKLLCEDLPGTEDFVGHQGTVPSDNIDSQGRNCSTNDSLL
Chain of Motilin receptor (O43193 whole entry): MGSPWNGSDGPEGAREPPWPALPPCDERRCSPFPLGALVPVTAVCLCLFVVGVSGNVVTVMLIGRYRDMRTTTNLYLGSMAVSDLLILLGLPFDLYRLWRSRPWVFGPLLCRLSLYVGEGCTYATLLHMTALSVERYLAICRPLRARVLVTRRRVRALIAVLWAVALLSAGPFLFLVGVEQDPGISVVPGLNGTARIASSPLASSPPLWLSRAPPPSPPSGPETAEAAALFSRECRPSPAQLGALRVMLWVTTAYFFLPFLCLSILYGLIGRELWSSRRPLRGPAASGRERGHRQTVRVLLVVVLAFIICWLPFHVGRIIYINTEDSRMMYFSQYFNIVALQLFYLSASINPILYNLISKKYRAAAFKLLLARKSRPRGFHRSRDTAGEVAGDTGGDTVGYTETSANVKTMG
Chain of Sodium-dependent noradrenaline transporter (P23975 whole entry): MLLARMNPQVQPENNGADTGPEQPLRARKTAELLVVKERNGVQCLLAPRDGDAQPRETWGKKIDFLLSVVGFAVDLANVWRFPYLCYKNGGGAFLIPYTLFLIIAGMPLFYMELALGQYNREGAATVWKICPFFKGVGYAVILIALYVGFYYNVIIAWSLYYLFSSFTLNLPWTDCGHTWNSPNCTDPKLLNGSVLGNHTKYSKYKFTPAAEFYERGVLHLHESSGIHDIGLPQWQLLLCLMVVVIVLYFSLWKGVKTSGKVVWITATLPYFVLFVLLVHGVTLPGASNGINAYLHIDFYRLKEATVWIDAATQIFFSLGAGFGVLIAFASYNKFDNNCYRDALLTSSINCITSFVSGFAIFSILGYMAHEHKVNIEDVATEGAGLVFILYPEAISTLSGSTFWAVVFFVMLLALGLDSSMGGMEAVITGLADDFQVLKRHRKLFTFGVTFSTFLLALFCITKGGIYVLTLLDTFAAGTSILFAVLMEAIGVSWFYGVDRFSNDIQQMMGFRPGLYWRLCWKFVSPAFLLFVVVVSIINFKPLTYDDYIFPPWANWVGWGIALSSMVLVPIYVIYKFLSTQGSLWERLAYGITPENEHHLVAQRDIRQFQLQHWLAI
Chain of Vasopressin V1a receptor (P37288 whole entry): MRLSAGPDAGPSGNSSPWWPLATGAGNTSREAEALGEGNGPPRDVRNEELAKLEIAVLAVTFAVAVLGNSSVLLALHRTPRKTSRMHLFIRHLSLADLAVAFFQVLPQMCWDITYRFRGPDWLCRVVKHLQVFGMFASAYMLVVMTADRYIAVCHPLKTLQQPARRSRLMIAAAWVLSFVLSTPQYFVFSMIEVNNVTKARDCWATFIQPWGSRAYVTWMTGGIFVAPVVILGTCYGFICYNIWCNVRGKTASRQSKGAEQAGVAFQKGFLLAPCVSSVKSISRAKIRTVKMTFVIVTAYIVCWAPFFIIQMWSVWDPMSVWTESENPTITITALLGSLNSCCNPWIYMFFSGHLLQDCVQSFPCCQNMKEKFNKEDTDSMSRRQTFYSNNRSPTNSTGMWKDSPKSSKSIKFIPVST
Chain of Mu-type opioid receptor (P35372 whole entry): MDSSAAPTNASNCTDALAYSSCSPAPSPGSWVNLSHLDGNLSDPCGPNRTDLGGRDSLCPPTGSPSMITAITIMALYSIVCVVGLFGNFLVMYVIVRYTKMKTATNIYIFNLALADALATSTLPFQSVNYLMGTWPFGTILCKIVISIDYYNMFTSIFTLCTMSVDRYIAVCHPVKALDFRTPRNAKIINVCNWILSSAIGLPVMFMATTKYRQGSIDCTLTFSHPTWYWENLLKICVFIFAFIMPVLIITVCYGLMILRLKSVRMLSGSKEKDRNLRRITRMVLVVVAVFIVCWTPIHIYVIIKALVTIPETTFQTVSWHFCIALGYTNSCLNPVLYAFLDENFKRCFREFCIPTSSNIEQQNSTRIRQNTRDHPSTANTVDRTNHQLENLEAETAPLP
Chain of Cannabinoid receptor 1 (P21554 whole entry): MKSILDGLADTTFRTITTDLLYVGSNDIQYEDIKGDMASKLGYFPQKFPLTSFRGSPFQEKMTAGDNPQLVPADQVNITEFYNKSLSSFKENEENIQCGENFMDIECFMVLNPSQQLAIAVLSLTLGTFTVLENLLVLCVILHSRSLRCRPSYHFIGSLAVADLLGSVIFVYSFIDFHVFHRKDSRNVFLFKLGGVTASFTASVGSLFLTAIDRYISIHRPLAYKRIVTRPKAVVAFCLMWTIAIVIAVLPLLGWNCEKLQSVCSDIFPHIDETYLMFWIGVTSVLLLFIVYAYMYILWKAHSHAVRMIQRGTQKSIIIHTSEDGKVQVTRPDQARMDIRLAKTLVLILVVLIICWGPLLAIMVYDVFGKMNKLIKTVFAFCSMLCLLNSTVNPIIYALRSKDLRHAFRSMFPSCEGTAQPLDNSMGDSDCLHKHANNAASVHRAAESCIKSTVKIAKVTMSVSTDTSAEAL
Chain of Melanocortin receptor 4 (P32245 whole entry): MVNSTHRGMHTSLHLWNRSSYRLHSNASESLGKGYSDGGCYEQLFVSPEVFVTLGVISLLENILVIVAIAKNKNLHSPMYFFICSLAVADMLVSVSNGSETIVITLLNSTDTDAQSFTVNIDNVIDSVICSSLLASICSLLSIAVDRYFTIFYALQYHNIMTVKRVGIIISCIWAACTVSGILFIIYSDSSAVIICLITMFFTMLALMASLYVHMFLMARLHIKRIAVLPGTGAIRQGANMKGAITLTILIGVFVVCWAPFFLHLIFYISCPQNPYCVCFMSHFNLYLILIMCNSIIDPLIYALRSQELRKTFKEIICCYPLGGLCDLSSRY

Structure (SMILES)	AC50 (Vasopressin V1a receptor) [µM]	AC50 [1] [µM]	AC50 [2] [µM]	AC50 (Melanocortin receptor 4) [µM]	AC50 (Adenosine receptor A1) [µM]	AC50 (Mu-type opioid receptor) [µM]	AC50 (Motilin receptor) [µM]	AC50 [3] [µM]	AC50 (Estrogen receptor) [µM]	AC50 (Cannabinoid receptor 1) [µM]	AC50 [4] [µM]	AC50 [5] [µM]
C[C@H](CSC(=O)c1ccccc1)C(=O)N1C[C@@H](Sc2ccccc2)C[C@H]1C(=O)O [ZOFENOPRIL]	> 10	> 10	> 10	> 10	> 10	> 30	> 10	> 10	> 10	> 10	> 10	–
CN1C(=O)OC(C)(C)C1=O [TRIMETHADIONE]	–	> 10	> 10	> 10	> 10	> 30	> 10	> 10	> 10	> 10	> 10	–
CC=CC(=O)N(CC)c1ccccc1C	–	> 10	> 10	> 10	> 10	> 30	> 10	> 10	> 10	> 10	> 10	> 30
CO[C@@H]1[C@@H](O[C@@H]2O[C@H](C)[C@@H](O[C@H]3C[C@@](C)(O)[C@@H](OC(=O)CC(C)C)[C@H](C)O3)[C@H](N(C)C)[C@H]2O)[C@@H](CC=O)C[C@@H](C)[C@@H](O)/C=C/C=C/C[C@@H](C)OC(=O)C[C@H]1OC(C)=O [JOSAMYCIN]	> 10	> 10	> 10	> 10	> 10	> 30	> 10	> 10	> 10	> 10	–	–
O=C(O)C1=C(CSc2nnnn2CS(=O)(=O)O)CS[C@@H]2[C@H](NC(=O)[C@H](O)c3ccccc3)C(=O)N12 [CEFONICID]	> 30	> 30	> 30	> 30	> 30	–	> 30	> 30	> 30	> 30	> 30	> 30
O=C(O)C[C@H](O)C[C@H](O)/C=C/c1c(C2CC2)nc2ccccc2c1-c1ccc(F)cc1 [PITAVASTATIN]	> 10	> 30	> 10	> 10	> 10	> 30	> 10	> 10	> 10	> 10	> 10	> 30
CCCC(C)C1(CC)C(=O)NC(=O)NC1=O (stereo not given) [PENTOBARBITAL]	> 10	> 10	> 10	> 10	> 10	> 30	> 10	> 10	> 10	> 10	> 30	> 30
NCC[C@H](O)C(=O)N[C@@H]1C[C@H](N)[C@@H](O[C@H]2O[C@H](CN)[C@@H](O)[C@H](O)[C@H]2O)[C@H](O)[C@H]1O[C@H]1O[C@H](CO)[C@@H](O)[C@H](N)[C@H]1O [AMIKACIN]	–	> 10	> 10	> 10	> 10	> 30	> 10	> 10	> 10	> 10	> 10	–
C=CCC1(C(C)CC)C(=O)NC(=O)NC1=O (stereo not given) [TALBUTAL]	> 10	> 10	> 10	> 10	> 10	> 30	> 10	> 10	> 10	> 10	> 10	–
CC1(C)O[C@@H]2C[C@H]3[C@@H]4CCC5=CC(=O)C=C[C@]5(C)[C@H]4[C@@H](O)C[C@]3(C)[C@]2(C(=O)CO)O1 [DESONIDE]	> 10	> 10	> 10	> 10	> 10	> 30	> 10	> 10	> 30	> 10	> 10	> 30
COC(=O)[C@H]1[C@H]2C[C@@H]3c4[nH]c5cc(OC)ccc5c4CCN3C[C@H]2C[C@@H](OC(=O)/C=C/c2cc(OC)c(OC)c(OC)c2)[C@@H]1OC [RESCINNAMINE]	> 10	> 30	> 10	> 10	> 30	> 10	> 10	> 10	> 10	> 10	–	–
C[C@H](N)[C@H](O)c1cccc(O)c1 [METARAMINOL]	> 10	> 10	> 10	> 10	> 10	> 30	> 10	> 30	> 10	> 10	30	–
C#C[C@]1(O)CC[C@H]2[C@@H]3CCC4=Cc5oncc5C[C@]4(C)[C@H]3CC[C@@]21C [DANAZOL]	–	–	> 10	> 10	> 30	> 30	> 10	> 10	> 30	> 10	> 10	> 30
Cc1ccc(S(=O)(=O)NC(=O)NN2CC3CCCC3C2)cc1 (stereo not given) [GLICLAZIDE]	–	> 10	> 10	> 10	> 10	> 30	> 10	> 10	> 10	> 10	> 30	–
CC(C[N+](C)(C)C)OC(N)=O (stereo not given) [BETHANECHOL]	> 10	> 10	> 10	> 10	> 10	> 30	> 10	> 10	> 10	> 10	> 10	–
O=C(O)[C@H](CC(=O)N1C[C@H]2CCCC[C@H]2C1)Cc1ccccc1 [MITIGLINIDE]	> 10	> 10	> 10	> 10	> 10	> 30	> 10	> 10	> 10	> 10	> 10	–
C=CCC1(CC(C)C)C(=O)NC(=O)NC1=O [BUTALBITAL]	> 10	> 10	> 10	> 10	> 10	> 30	> 10	> 10	> 10	> 10	> 30	> 30
